# Read-outs that look alike come from different tables or passages of the source. Where a SMILES comes first, the peptide text is derived from it. Where no end group is shown, it is not given here. Side-chain parts run from the residue outwards. [ ]: non-standard residue; d: D form. Ac6c = NC1(C(=O)O)CCCCC1; Ac3c = NC1(C(=O)O)CC1; Aib = CC(C)(N)C(=O)O; PEG40k = 40 kDa PEG; Sar = CNCC(=O)O
# Assays:
# GLP-1 receptor = molecular target: T1, GLP-1 receptor (Homo sapiens, UniProt P43220); experiment: Luciferase-based reporter gene assay for cAMP detection, HEK293 cells co-transfected with GLP-1 receptor (prodrug samples pre-incubated in PBS or plasma); format: cell-based
# T1 construct: expressed in transfected cells; host or cells: HEK293
# T1 sequence (P43220 24-463, species assumed): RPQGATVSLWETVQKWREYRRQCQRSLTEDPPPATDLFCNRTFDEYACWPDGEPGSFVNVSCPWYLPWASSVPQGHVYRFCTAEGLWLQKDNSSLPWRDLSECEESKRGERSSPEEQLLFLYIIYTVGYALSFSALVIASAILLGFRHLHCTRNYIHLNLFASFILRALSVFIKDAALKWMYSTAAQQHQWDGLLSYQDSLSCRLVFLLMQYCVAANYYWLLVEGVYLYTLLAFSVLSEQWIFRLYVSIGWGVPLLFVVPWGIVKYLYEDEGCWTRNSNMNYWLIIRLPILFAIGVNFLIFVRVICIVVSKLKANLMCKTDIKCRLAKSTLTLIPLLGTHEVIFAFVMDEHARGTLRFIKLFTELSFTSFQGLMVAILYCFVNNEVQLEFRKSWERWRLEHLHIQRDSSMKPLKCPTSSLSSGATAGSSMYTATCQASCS
# Method: To explore the possible formation of DKP and simultaneous regeneration of the parent drug, 40 k PEG-Aib^−1-P^0,C^24GLP(7-36) was incubated in PBS buffer at 37° C. for approximately 10 days.
# [1] = Dipeptide cleavage half time in PBS on model hexapeptide (HPLC / LC-MS); conditions: for Relative peak area(%), HPLC peak a / Relative peak area(%), HPLC peak b: PBS; for Relative peak area(%), HPLC peak a: peak a MW 702; for Relative peak area(%), HPLC peak b: peak b MW 902; for half-life: buffer
# Method: (§1) The flow rate was 1 mL/min. Solvent A contained 0.1% TFA in distilled water, and solvent B contained 0.1% TFA in 90% CH3CN. A linear gradient was employed (0% to 30% B in 10 minutes). The data were collected and analyzed using Peak Simple Chromatography software.
# (§2) The initial rates of cleavage were used to measure the rate constant for the dissociation of the respective prodrugs. […] The first order dissociation rate constants of the prodrugs were determined by plotting the logarithm of the concentration of the prodrug at various time intervals. The slope of this plot gives the rate constant ‘k’.
# [2] = buffer
# Method: as §1, §2
compound,measurement,setting,value
"40 kPEG-Aib^−1-P^0,C^24GLP(7-36): Aib^−1-P^0,C^24GLP(7-36) pegylated by maleimido-functioned 40 k Da PEG on the SH group of 24-Cys ([Aib]PHAEGTFTSDVSSYLEGQAAKEFIC([maleimide-PEG40k])WLVKGR)",EC50%/STD ratio,GLP-1 receptor; prodrug incubated in PBS at 37° C. for 30 h,17.31%
same,EC50%/STD ratio,GLP-1 receptor; prodrug incubated in PBS at 37° C. for 54 h,27.74%
same,EC50%/STD ratio,GLP-1 receptor; prodrug incubated in PBS at 37° C. for 240 h,66.49%
same,EC50%/STD ratio,GLP-1 receptor; prodrug incubated in PBS at 37° C. for […],55.90%
"C[C@@H](O)[C@H](NC(=O)CNC(=O)[C@H](CCCNC(=N)N)NC(=O)[C@H](CO)NC(=O)[C@H](Cc1c[nH]cn1)NC(=O)CN(C)C(=O)[C@@H](N)CCCCN)C(=O)N[C@@H](Cc1ccccc1)C(N)=O [A peptide, lys-sar-HSRGTF-NH2] (H-K[Sar]HSRGTF-NH2; N-terminus assumed)","Relative peak area(%), HPLC peak a",[1]; 5 h,26.5%
same,"Relative peak area(%), HPLC peak b",[1]; 5 h,73.5%
same,"Relative peak area(%), HPLC peak a",[1]; 8 h,28.9%
same,"Relative peak area(%), HPLC peak b",[1]; 8 h,71.1%
same,"Relative peak area(%), HPLC peak a",[1]; 24 h,28.8%
same,"Relative peak area(%), HPLC peak b",[1]; 24 h,71.2%
same,"Relative peak area(%), HPLC peak a",[1]; 31 h,77.7%
same,"Relative peak area(%), HPLC peak b",[1]; 31 h,22.3%
same,"Relative peak area(%), HPLC peak a",[1]; 47 h,90.0%
same,"Relative peak area(%), HPLC peak b",[1]; 47 h,10.0%
C[C@@H](O)[C@H](NC(=O)CNC(=O)[C@H](CCCNC(=N)N)NC(=O)[C@H](CO)NC(=O)[C@H](Cc1c[nH]cn1)NC(=O)[C@@H](N)Cc1ccc(NC(=O)[C@@H]2CCCN2C(=O)[C@@H](N)Cc2ccccc2)cc1)C(=O)N[C@@H](Cc1ccccc1)C(N)=O [Compounds 1],half-life,[1],58 h
C[C@@H](O)[C@H](NC(=O)CNC(=O)[C@H](CCCNC(=N)N)NC(=O)[C@H](CO)NC(=O)[C@H](Cc1c[nH]cn1)NC(=O)[C@@H](N)Cc1ccc(NC(=O)[C@@H]2CCCN2C(=O)[C@H](N)Cc2ccccc2)cc1)C(=O)N[C@@H](Cc1ccccc1)C(N)=O [Compounds 3],half-life,[1],20 h
C[C@@H](O)[C@H](NC(=O)CNC(=O)[C@H](CCCNC(=N)N)NC(=O)[C@H](CO)NC(=O)[C@H](Cc1c[nH]cn1)NC(=O)[C@@H](N)Cc1ccc(NC(=O)[C@H]2CCCN2C(=O)[C@H](N)Cc2ccccc2)cc1)C(=O)N[C@@H](Cc1ccccc1)C(N)=O [Compounds 4],half-life,[1],39 h
C[C@@H](O)[C@H](NC(=O)CNC(=O)[C@H](CCCNC(=N)N)NC(=O)[C@H](CO)NC(=O)[C@H](Cc1c[nH]cn1)NC(=O)[C@@H](N)Cc1ccc(NC(=O)[C@@H]2CCCN2C(=O)CN)cc1)C(=O)N[C@@H](Cc1ccccc1)C(N)=O [Compounds 5],half-life,[1],72 h
C[C@@H](O)[C@H](NC(=O)CNC(=O)[C@H](CCCNC(=N)N)NC(=O)[C@H](CO)NC(=O)[C@H](Cc1c[nH]cn1)NC(=O)[C@@H](N)Cc1ccc(NC(=O)[C@@H]2CCCN2C(=O)CO)cc1)C(=O)N[C@@H](Cc1ccccc1)C(N)=O [Compounds 6],half-life,[1],603 h
CC(C)C[C@H](N)C(=O)N1CCC[C@H]1C(=O)Nc1ccc(C[C@H](N)C(=O)N[C@@H](Cc2c[nH]cn2)C(=O)N[C@@H](CO)C(=O)N[C@@H](CCCNC(=N)N)C(=O)NCC(=O)N[C@H](C(=O)N[C@@H](Cc2ccccc2)C(N)=O)[C@@H](C)O)cc1 [Compounds 7],half-life,[1],62 h
C[C@@H](O)[C@H](NC(=O)CNC(=O)[C@H](CCCNC(=N)N)NC(=O)[C@H](CO)NC(=O)[C@H](Cc1c[nH]cn1)NC(=O)[C@@H](N)Cc1ccc(NC(=O)[C@@H]2CCCN2C(=O)[C@@H](N)C(C)(C)C)cc1)C(=O)N[C@@H](Cc1ccccc1)C(N)=O [Compounds 8],half-life,[2],200 h
C[C@@H](O)[C@H](NC(=O)CNC(=O)[C@H](CCCNC(=N)N)NC(=O)[C@H](CO)NC(=O)[C@H](Cc1c[nH]cn1)NC(=O)[C@@H](N)Cc1ccc(NC(=O)[C@@H]2CCCN2C(=O)[C@@H](N)CO)cc1)C(=O)N[C@@H](Cc1ccccc1)C(N)=O [Compounds 9],half-life,[1],34 h
C[C@@H](O)[C@H](NC(=O)CNC(=O)[C@H](CCCNC(=N)N)NC(=O)[C@H](CO)NC(=O)[C@H](Cc1c[nH]cn1)NC(=O)[C@@H](N)Cc1ccc(NC(=O)[C@@H]2CCCN2C(=O)[C@@H]2CCCN2)cc1)C(=O)N[C@@H](Cc1ccccc1)C(N)=O [Compounds 10],half-life,[1],97 h
C[C@@H](O)[C@H](NC(=O)CNC(=O)[C@H](CCCNC(=N)N)NC(=O)[C@H](CO)NC(=O)[C@H](Cc1c[nH]cn1)NC(=O)[C@@H](N)Cc1ccc(NC(=O)[C@@H]2CCCN2C(=O)[C@@H](N)CCCCN)cc1)C(=O)N[C@@H](Cc1ccccc1)C(N)=O [Compounds 11],half-life,[1],33 h
C[C@@H](O)[C@H](NC(=O)CNC(=O)[C@H](CCCNC(=N)N)NC(=O)[C@H](CO)NC(=O)[C@H](Cc1c[nH]cn1)NC(=O)[C@@H](N)Cc1ccc(NC(=O)[C@@H]2CCCN2C(=O)[C@H](N)CCCCN)cc1)C(=O)N[C@@H](Cc1ccccc1)C(N)=O [Compounds 12],half-life,[1],11 h
C[C@@H](O)[C@H](NC(=O)CNC(=O)[C@H](CCCNC(=N)N)NC(=O)[C@H](CO)NC(=O)[C@H](Cc1c[nH]cn1)NC(=O)[C@@H](N)Cc1ccc(NC(=O)[C@@H]2CCCN2C(=O)[C@@H](N)CCC(=O)O)cc1)C(=O)N[C@@H](Cc1ccccc1)C(N)=O [Compounds 13],half-life,[1],85 h
CNCC(=O)N1CCC[C@H]1C(=O)Nc1ccc(C[C@H](N)C(=O)N[C@@H](Cc2c[nH]cn2)C(=O)N[C@@H](CO)C(=O)N[C@@H](CCCNC(=N)N)C(=O)NCC(=O)N[C@H](C(=O)N[C@@H](Cc2ccccc2)C(N)=O)[C@@H](C)O)cc1 [Compounds 14],half-life,[1],~1000 h
C[C@@H](O)[C@H](NC(=O)CNC(=O)[C@H](CCCNC(=N)N)NC(=O)[C@H](CO)NC(=O)[C@H](Cc1c[nH]cn1)NC(=O)[C@@H](N)Cc1ccc(NC(=O)[C@@H]2CCCN2C(=O)C(C)(C)N)cc1)C(=O)N[C@@H](Cc1ccccc1)C(N)=O [Compounds 15],half-life,[2],1.15 h
C[C@@H](O)[C@H](NC(=O)CNC(=O)[C@H](CCCNC(=N)N)NC(=O)[C@H](CO)NC(=O)[C@H](Cc1c[nH]cn1)NC(=O)[C@@H](N)Cc1ccc(NC(=O)[C@@H]2CCCN2C(=O)C(C)(C)O)cc1)C(=O)N[C@@H](Cc1ccccc1)C(N)=O [Compounds 16],half-life,[2],33 h
C[C@@H](O)[C@H](NC(=O)CNC(=O)[C@H](CCCNC(=N)N)NC(=O)[C@H](CO)NC(=O)[C@H](Cc1c[nH]cn1)NC(=O)[C@@H](N)Cc1ccc(NC(=O)[C@@H]2CCCN2C(=O)C2(N)CCCCC2)cc1)C(=O)N[C@@H](Cc1ccccc1)C(N)=O [Compounds 17],half-life,[2],0.1 h
C[C@@H](O)[C@H](NC(=O)CNC(=O)[C@H](CCCNC(=N)N)NC(=O)[C@H](CO)NC(=O)[C@H](Cc1c[nH]cn1)NC(=O)[C@@H]1CCCN1C(=O)C1(N)CCCCC1)C(=O)N[C@@H](Cc1ccccc1)C(N)=O [Peptide 17] (H-[Ac6c]PHSRGTF-NH2),half-life,[1],5 h
C[C@@H](O)[C@H](NC(=O)CNC(=O)[C@H](CCCNC(=N)N)NC(=O)[C@H](CO)NC(=O)[C@H](Cc1c[nH]cn1)NC(=O)[C@@H]1CCCN1C(=O)C1(N)CC1)C(=O)N[C@@H](Cc1ccccc1)C(N)=O [Peptide 18] (H-[Ac3c]PHSRGTF-NH2),half-life,[1],10 h

# Source: patent US8778872B2 (priority 2010, dated 2014)
